Measurements: patent US20220160751A1, “METHODS OF TREATMENT OF DISEASES AND DISORDERS ASSOCIATED WITH INCREASED TET LEVEL, INCREASED H19 LEVEL, INCREASED LEVEL OF TGF SIGNALING, OR ANY COMBINATION THEREOF” (YALE UNIVERSITY, priority 2019, published 2022)

What was measured:
[1] = test system: UtLM and ht-UtLM leiomyoma cells; test: RT-qPCR and Western blot of gene expression in leiomyoma cells; format: cell-based, human
Source text: Antibodies for TET3 (GeneTex, GTX121453; used at a dilution of 1/500), TGFBR2 (Abcam, ab184948; used at a dilution of 1/1000), TSP1 (Abcam, ab85762; used at a dilution of 1/500), MED12 (Novus Biological, NB100-2357; used at a dilution of 1/500), HMGA2 (Proteintech, 20795-1-AP; used at a dilution of 1/500), GRAF1 (Cell Signaling, 8802; used at a dilution of 1/500), SPARC (Cell Signaling, 8725; used at a dilution of 1/500), COL3A1 (LS-Bio, LS-C159386; used at a dilution of 1/1000), COL4A1 (LS-Bio, LS-C100552; used at a dilution of 1/500), COL5A2 (Origene, TA809611; used at a dilution of 1/500) and GAPDH (Abcam, ab128915; used at a dilution of 1/10000) were purchased. Human H19 siRNA (siH19) and control siRNA (siCon) were previously described (Ghazal S et al., 2015, EMBO Mol Med 7:996-1003). siTET3 (Ambion, 4392420/s47239), estradiol ([…], Sigma), and progesterone ([…], Sigma) were purchased. Estradiol and progesterone were dissolved in DMSO and used at a final concentration of 10^-8M. ht-UtLM cells tested negative for mycoplasma contamination were maintained in MEM (Sigma, #M3024) supplemented with 20% fetal bovine serum, 1×MEM Vitamin Solution (Invitrogen #11120-052), 1×MEM Amino Acids Solution (Invitrogen, #11130-051), and 1×MEM Non-Essential Amino Acids (Invitrogen #11140-050). Primary UtLM-1 and UtLM-2 cells were maintained in DMEM (Gibco, #10567014) supplemented with 20% fetal bovine serum, and 1% penicillin/streptomycin, 1% amphotericin B. All cells were transfected in a 24-well plate scale. To prepare siRNA transfection solution for each well, 10 pmol (5 pmol for primary cells) of siCon, siH19, or siTET3 were mixed with 25 μl of OPTI-MEM by gentle pipetting. In parallel, 1 μl of Lipofectamine 3000 was mixed with 25 μl of OPTI-MEM. Following 5 min of incubation at room temperature, the two were mixed by gentle inverting and incubated for 10 min at room temperature to allow siRNA/lipid complexes to form. At the end of incubation, the 50 μl of transfection solution was used to re-suspend the cell pellet (3×10^4 cells). After incubation at room temperature for 10 min, growth medium was added at a ratio of 1:9 (1 volume of transfection solution/9 volumes of growth medium), and the cell suspension was transferred to a new culture dish. After overnight incubation in a tissue culture incubator, the medium was replaced with fresh growth medium. For iLet 7 rescue experiments, 10 pmol of siCon/siH19 and 10 pmol of iCon/iLet7 were used for each well of 3×10^4 cells. RNA, genomic DNA, and protein were extracted and analyzed at the indicated time points following transfection.

[2] = test system: LX-2 human hepatic stellate cells; test: qPCR and immunoblotting of gene expression in LX-2 cells; format: cell-based
Experimental: LX-2 human hepatic stellate cells (Yale Liver Center) were maintained in DMEM (Gibco, 11965-092) supplemented with 10% heat-inactivated fetal bovine serum (Gibco, 26140-079) and 1% PS (penicillin and streptomycin) at 37° C. in 5% humidified CO2 tissue culture incubator. Generally, cells were plated and transfected in a 24-well plate scale. For transfection with siRNA, let-7, or iLet7, 10 pmol of siTET3 (or siCon), let-7 (or miCon), or iLet7 (iCon) were mixed with 25 μl of OPTI-MEM (Gibco, 31985-070) by gentle pipetting. In parallel, 1 μl of Lipofectamine 3000 (ThermoFisher Scientific, L3000015) was mixed with 25 μl of OPTI-MEM. Then, the contents from the two tubes were mixed by gentle pipetting. After incubation for 5 min at RT, the resulting 50 μl solution was used to resuspend cell pellet (5×10^4 cells). After incubation at RT for 10 min, 450 μl of growth medium was added and the cell suspension was transferred into one well of a 24-well plate. For transfection with TET3-expression plasmid pTET3 (pcDNA-Flag-Tet3, Addgene plasmid #60940, (30)) or control vector, 5×10^4 cells per well were seeded in a 24-well plate the night before transfection. The next day, 0.75 μg of pTET3 (or Vec) were mixed with 1 μl of P3000 in 25 μl of OPTI-MEM by gentle pipetting. In parallel, 0.5 μl of Lipofectamine 3000 were mixed with 25 μl of OPTI-MEM. The contents from the two tubes were combined by gentle pipetting and incubated for 5 min at RT. The resulting 50 μl of transfection solution was added to each well of cells seeded in a 24-well plate the night before and from which the growth medium had been removed. After 6 h of incubation in a tissue culture incubator, 500 μl of growth medium were added to each well of cells. For TGF-β1 (Sigma, USA) treatment experiments, transfected cells were incubated in 500 μl of serum-free DMEM containing 5 ng/mL TGF-β1 (diluted with HCl) or HCl (as control) for 24 h or 48 h as indicated.
Total RNA was extracted from cultured cells or liver tissue samples using PureLink RNA Mini Kit (Ambion, 12183018A). 0.8 μg of total RNA was reverse transcribed to cDNA in a reaction volume of 10 μl using PrimeScript RT Reagent Kit (TAKARA, RR037A). Quantitative real-time PCR reactions were carried out using iQSYBRGreen (Bio-Rad) in a Bio-Rad iCycler. Gene expression levels were normalized against housekeeping genes HPRT1 and RPLP0.
For liver tissue samples, 5-10 mg of tissues were homogenized by sonication (Qsonica, Model Q125) in 150 μl of 2×SDS-sample buffer. Samples were immediately heated at 100° C. for 3 min with occasional vertexing. Then, 100 μl of 2×SDS-sample buffer was added to each sample and the 250 μl of tissue lysate were further homogenized by sonication and heated again at 100° C. for 3-5 min with vertexing once every 15 sec. Samples (further diluted at 1:1 with 2×SDS-sample buffer before loading) were loaded 5-10 μl per well onto a 4-15% gradient SDS gel, followed by Western blot analysis. Image J was used to quantify the protein bands.

siTET3: TET3-specific siRNA (human), Ambion 4392420/s47239 (sense CAGCAACUCCUAGAACUGATT; antisense UCAGUUCUAGGAGUUGCUGGA; chemistry not given here)
protein levels of MED12, TGFBR2, TSP1, GRAF1, SPARC, COL5A2, COL4A1, COL3A1 (Western blot) ([1]; UtLM cells, vs siCon): all decreased
MED12 expression ([1]; ht-UtLM cells): lack of effects
mRNA expression of TET3, MED12, TGFBR2, TSP1, GRAF1, SPARC, COL3A1, COL4A1 and COL5A2 ([1]; primary human leiomyoma cells and ht-UtLM, 48 h, vs siCon): results similar to those of H19 knockdown were obtained
expression of TGFB1, TSP1 and TGFBR2 (mRNA and protein) ([2]; 48 h post-transfection, vs siCon or Vec): decreased expression of TGFB1, TSP1 and TGFBR2
TGF-β1-induced TGF-β signaling and profibrotic gene expression ([2]; TET3 siRNA 24 h, then TGF-β1 5 ng/mL 24 h): the effects were no longer observed
